Test results from patent publication US9938261B2, “Heterocyclic compounds and methods of use thereof” (AMBIT BIOSCIENCES CORPORATION, priority 2011, dated 2018).

Key:
[1] = molecular target: kinase panel containing either 386 or 392 distinct kinases; test: Kinase selectivity score S10 from competition binding panel; conditions: 10 μM, panel of 386 or 392 distinct kinases
In short: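 Compounds at 10 μM competed against immobilised affinity ligands for T7 phage-fused or HEK-293-expressed DNA-tagged kinases, 1 h at room temperature; bound kinase eluted and quantified by qPCR. S10 = fraction of distinct non-mutant kinases with percent of DMSO control below 10.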

KIT = molecular target: T1, KIT (Homo sapiens, UniProt P10721); test: Competition binding assay, KIT Kd; conditions: competition binding
T1 construct: made in house
In short: (§1)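 Kinases, either T7 phage fusions or HEK-293-expressed and DNA-tagged, competed with test compounds for immobilized biotinylated affinity ligand on streptavidin beads in binding buffer (20% SeaBlock, 0.17×PBS, 0.05% Tween 20, 6 mM DTT). After 1 hour at room temperature, bead-bound kinase was eluted and quantified by qPCR; Kd from eleven-point threefold dilutions.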

M-NFS-60 cells = test: M-NFS-60 cell proliferation assay (Alamar Blue); assay type: cell-based, mouse; conditions: Mus musculus; M-NFS-60 cell proliferation; read-out: CSF1R M-NFS-60 CTB:IC50
In short: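 Mouse M-NFS-60 cells growing on 20 ng/mL M-CSF in RPMI/10% FBS were exposed to compounds (9 half-log concentrations, 0.5% DMSO) for 72 h at 37 °C. Viability read by Alamar Blue fluorescence (ex 560/em 590 nm, 3 h). IC50 = 50% proliferation inhibition versus control, mean of duplicates.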

FLT3 = molecular target: T2, FLT3 (Homo sapiens, UniProt P36888); test: Competition binding assay, FLT3 Kd; conditions: competition binding
T2 construct: made in house
T2 sequence (P36888 27-993): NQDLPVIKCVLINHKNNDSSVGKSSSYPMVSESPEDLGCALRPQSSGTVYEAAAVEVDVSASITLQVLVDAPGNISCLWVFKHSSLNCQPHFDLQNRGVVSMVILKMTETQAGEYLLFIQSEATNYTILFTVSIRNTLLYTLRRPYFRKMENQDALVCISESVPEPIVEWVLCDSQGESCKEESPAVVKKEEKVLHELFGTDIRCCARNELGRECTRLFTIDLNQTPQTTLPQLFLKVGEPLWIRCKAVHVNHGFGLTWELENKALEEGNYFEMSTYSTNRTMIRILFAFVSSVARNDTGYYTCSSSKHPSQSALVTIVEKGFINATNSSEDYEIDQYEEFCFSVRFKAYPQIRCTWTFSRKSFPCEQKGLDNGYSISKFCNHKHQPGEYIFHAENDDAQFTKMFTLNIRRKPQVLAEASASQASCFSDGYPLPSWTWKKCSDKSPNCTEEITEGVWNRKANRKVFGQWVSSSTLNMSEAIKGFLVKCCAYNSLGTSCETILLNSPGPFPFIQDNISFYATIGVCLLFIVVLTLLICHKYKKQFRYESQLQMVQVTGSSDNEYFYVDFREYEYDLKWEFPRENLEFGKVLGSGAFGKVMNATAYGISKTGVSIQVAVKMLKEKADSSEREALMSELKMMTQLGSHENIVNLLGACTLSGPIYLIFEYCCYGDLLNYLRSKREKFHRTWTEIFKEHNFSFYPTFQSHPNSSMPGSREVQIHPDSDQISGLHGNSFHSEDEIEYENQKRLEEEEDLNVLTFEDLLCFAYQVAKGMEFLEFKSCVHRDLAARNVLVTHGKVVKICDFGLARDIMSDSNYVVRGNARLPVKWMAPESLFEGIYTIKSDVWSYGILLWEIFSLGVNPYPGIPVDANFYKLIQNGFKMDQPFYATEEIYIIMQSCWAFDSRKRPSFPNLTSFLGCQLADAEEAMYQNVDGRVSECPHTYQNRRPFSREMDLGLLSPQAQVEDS
In short: as §1

T1 sequence (P10721 26-976): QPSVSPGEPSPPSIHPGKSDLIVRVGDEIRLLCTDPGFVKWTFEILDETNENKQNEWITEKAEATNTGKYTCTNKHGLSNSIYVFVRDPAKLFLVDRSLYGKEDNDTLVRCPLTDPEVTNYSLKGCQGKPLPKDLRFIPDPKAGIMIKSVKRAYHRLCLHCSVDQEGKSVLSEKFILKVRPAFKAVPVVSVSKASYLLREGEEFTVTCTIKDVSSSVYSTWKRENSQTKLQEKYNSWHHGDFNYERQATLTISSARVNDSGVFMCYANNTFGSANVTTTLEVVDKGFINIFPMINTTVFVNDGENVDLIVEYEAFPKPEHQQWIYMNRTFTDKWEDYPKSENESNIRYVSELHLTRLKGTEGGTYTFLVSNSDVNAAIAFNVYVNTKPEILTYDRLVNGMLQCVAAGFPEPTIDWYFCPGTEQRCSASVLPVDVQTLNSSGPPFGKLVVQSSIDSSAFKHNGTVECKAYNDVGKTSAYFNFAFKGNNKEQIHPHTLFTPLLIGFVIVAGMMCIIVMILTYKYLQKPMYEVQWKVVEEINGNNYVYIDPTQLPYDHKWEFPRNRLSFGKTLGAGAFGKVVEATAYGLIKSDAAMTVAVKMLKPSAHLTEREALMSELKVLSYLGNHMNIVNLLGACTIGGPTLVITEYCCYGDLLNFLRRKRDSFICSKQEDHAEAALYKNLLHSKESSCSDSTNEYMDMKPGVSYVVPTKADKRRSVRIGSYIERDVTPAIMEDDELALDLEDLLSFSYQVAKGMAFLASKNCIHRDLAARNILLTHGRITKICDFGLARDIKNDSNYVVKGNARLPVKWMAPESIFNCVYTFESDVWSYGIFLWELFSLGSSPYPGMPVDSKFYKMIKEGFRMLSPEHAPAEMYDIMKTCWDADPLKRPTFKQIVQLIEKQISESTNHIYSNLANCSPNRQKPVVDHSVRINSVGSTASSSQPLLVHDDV

| Kinase specificity S(10) [1] | Kd (KIT) [nM] | Kd (FLT3) [nM] | SMILES | IC50 (M-NFS-60 cells) [nM] |
| --- | --- | --- | --- | --- |
| A (A≤0.01) | 500 to 2000 | 1000 to 5000 | CS(=O)(=O)c1ccc2ncn(Cc3ccc4nc(N[C@@H]5CCCC[C@H]5O)sc4c3)c2c1 [Example 113, (1R,2R)-2-((6-((6-(methylsulfonyl)-1H-benzo[d]imidazol-1-yl)methyl)benzo[d]thiazol-2-yl)amino)cyclohexanol] | > 1500 |
| A (A≤0.01) | ≤ 100 | 200 to 1000 | Cc1cc2ncn(Cc3ccc4nc(N[C@@H]5CCCC[C@H]5O)sc4c3)c2cc1C [Example 119, (1R,2R)-2-((6-((5,6-dimethyl-1H-benzo[d]imidazol-1-yl)methyl)benzo[d]thiazol-2-yl)amino)cyclohexanol] | 50 to 400 |
| B (0.01<B≤0.02) | 100 to 500 | 1000 to 5000 | CC(=O)c1ccc2ncn(Cc3ccc4nc(N[C@@H]5CCCC[C@H]5O)sc4c3)c2c1 [Example 120, 1-(1-((2-(((1R,2R)-2-hydroxycyclohexyl)amino)benzo[d]thiazol-6-yl)methyl)-1H-benzo[d]imidazol-6-yl)ethanone] | 50 to 400 |
| A (A≤0.01) | > 2000 | 1000 to 5000 | O[C@@H]1CCCC[C@H]1Nc1nc2c(Cl)cc(Cc3cnc4ccc(N5CCOCC5)nn34)cc2s1 [Example 156, (1R,2R)-2-((4-chloro-6-((6-morpholinoimidazo[1,2-b]pyridazin-3-yl)methyl)benzo[d]thiazol-2-yl)amino)cyclohexanol] | 400 to 1500 |
| B (0.01<B≤0.02) | ≤ 100 | ≤ 200 | O[C@@H]1CCCC[C@H]1Nc1nc2ccc(Cc3cnc4ccc(N5CCOCC5)nn34)cc2s1 [Example 155, (1R,2R)-2-((6-((6-morpholinoimidazo[1,2-b]pyridazin-3-yl)methyl)benzo[d]thiazol-2-yl)amino)cyclohexanol] | 50 to 400 |
| A (A≤0.01) | 100 to 500 | 1000 to 5000 | Cc1ccc2c(c1)ncn2Cc1ccc2nc(N[C@@H]3CCCC[C@H]3O)sc2c1 [Example 127, (1R,2R)-2-((6-((5-methyl-1H-benzo[d]imidazol-1-yl)methyl)benzo[d]thiazol-2-yl)amino)cyclohexanol] | 50 to 400 |
| A (A≤0.01) | > 2000 | > 5000 | O[C@@H]1CCCC[C@H]1Nc1nc2ccc(Cc3cnc4sccn34)cc2s1 [Example 157, (1R,2R)-2-((6-(imidazo[2,1-b]thiazol-5-ylmethyl)benzo[d]thiazol-2-yl)amino)cyclohexanol] | 400 to 1500 |
| A (A≤0.01) | 500 to 2000 | 1000 to 5000 | O[C@@H]1CCCC[C@H]1Nc1nc2ccc(Cc3cnc4ccc(-n5cccn5)cn34)cc2s1 [Example 159, (1R,2R)-2-((6-((6-(1H-pyrazol-1-yl)imidazo[1,2-a]pyridin-3-yl)methyl)benzo[d]thiazol-2-yl)amino)cyclohexanol] | 400 to 1500 |
| A (A≤0.01) | 500 to 2000 | 1000 to 5000 | O[C@@H]1[C@H](O)CCC[C@H]1Nc1nc2ccc(Cc3cnc4cc(-n5nccn5)ccn34)cc2s1 [Example 231, (1R,2S,3R)-3-((6-((7-(2H-1,2,3-triazol-2-yl)imidazo[1,2-a]pyridin-3-yl)methyl)benzo[d]thiazol-2-yl)amino)cyclohexane-1,2-diol] | ≤ 50 |
| B (0.01<B≤0.02) | ≤ 100 | ≤ 200 | COc1ccc2ncn(Cc3ccc4nc(N[C@@H]5CCCC[C@H]5O)oc4c3)c2c1 [Example 152, (1R,2R)-2-((6-((6-methoxy-1H-benzo[d]imidazol-1-yl)methyl)benzo[d]oxazol-2-yl)amino)cyclohexanol] | 50 to 400 |
| A (A≤0.01) | ≤ 100 | 200 to 1000 | O[C@@H]1CCCC[C@H]1Nc1nc2ccc(Cn3cnc4cc(Cl)c(Cl)nc43)cc2s1 [Example 137, (1R,2R)-2-((6-((5,6-dichloro-3H-imidazo[4,5-b]pyridin-3-yl)methyl)benzo[d]thiazol-2-yl)amino)cyclohexanol] | ≤ 50 |
| B (0.01<B≤0.02) | ≤ 100 | 1000 to 5000 | O[C@@H]1CCCC[C@H]1Nc1nc2ccc(Cn3cnc4cc(F)ccc43)cc2s1 [Example 129, (1R,2R)-2-((6-((5-fluoro-1H-benzo[d]imidazol-1-yl)methyl)benzo[d]thiazol-2-yl)amino)cyclohexanol] | 50 to 400 |
| A (A≤0.01) | ≤ 100 | 200 to 1000 | O[C@@H]1CCCC[C@H]1Nc1nc2ccc(Cn3cnc4cc(-n5cccn5)ccc43)cc2s1 [Example 160, (1R,2R)-2-((6-((5-(1H-pyrazol-1-yl)-1H-benzo[d]imidazol-1-yl)methyl)benzo[d]thiazol-2-yl)amino)cyclohexanol] | ≤ 50 |
| A (A≤0.01) | 100 to 500 | 1000 to 5000 | O[C@@H]1CCCC[C@H]1Nc1nc2ccc(Cn3cnc4cc(C(F)(F)F)ccc43)cc2s1 [Example 130, (1R,2R)-2-((6-((5-(trifluoromethyl)-1H-benzo[d]imidazol-1-yl)methyl)benzo[d]thiazol-2-yl)amino)cyclohexanol] | 50 to 400 |
| A (A≤0.01) | > 2000 | > 5000 | O=c1c(N2CCOCC2)nccn1Cc1ccc2nc(N[C@@H]3CCCC[C@H]3O)sc2c1 [Example 222, 1-((2-(((1R,2R)-2-hydroxycyclohexyl)amino)benzo[d]thiazol-6-yl)methyl)-3-morpholinopyrazin-2(1H)-one] | > 1500 |
| A (A≤0.01) | 500 to 2000 | > 5000 | O[C@H]1[C@@H](O)CCC[C@H]1Nc1nc2ccc(Cn3cnc4cc(F)cnc43)cc2s1 [Example 228, (1S,2R,3R)-3-((6-((6-fluoro-3H-imidazo[4,5-b]pyridin-3-yl)methyl)benzo[d]thiazol-2-yl)amino)cyclohexane-1,2-diol] | > 1500 |
| A (A≤0.01) | 500 to 2000 | 1000 to 5000 | O[C@@H]1CCCC[C@H]1Nc1nc2ccc(Cc3cnc4cc(-n5cncn5)ccn34)cc2s1 [Example 169, (1R,2R)-2-((6-((7-(1H-1,2,4-triazol-1-yl)imidazo[1,2-a]pyridin-3-yl)methyl)benzo[d]thiazol-2-yl)amino)cyclohexanol] | 50 to 400 |
| B (0.01<B≤0.02) | 500 to 2000 | 1000 to 5000 | CNC(=O)c1ccc2ncc(Cc3ccc4nc(N[C@@H]5CCCC[C@H]5O)sc4c3)n2n1 [Example 143, 3-((2-(((1R,2R)-2-hydroxycyclohexyl)amino)benzo[d]thiazol-6-yl)methyl)-N-methylimidazo[1,2-b]pyridazine-6-carboxamide] | 400 to 1500 |
| A (A≤0.01) | ≤ 100 | 200 to 1000 | CCOc1ccc2c(c1)ncn2Cc1ccc2nc(N[C@@H]3CCCC[C@H]3O)sc2c1 [Example 138, (1R,2R)-2-((6-((5-ethoxy-1H-benzo[d]imidazol-1-yl)methyl)benzo[d]thiazol-2-yl)amino)cyclohexanol] | ≤ 50 |
| A (A≤0.01) | 500 to 2000 | 1000 to 5000 | CC(O)c1cnc2c(c1)ncn2Cc1ccc2nc(N[C@@H]3CCCC[C@H]3O)sc2c1 (stereo partly drawn) [Example 115, (1R,2R)-2-((6-((6-((R,S)-1-hydroxyethyl)-3H-imidazo[4,5-b]pyridin-3-yl)methyl)benzo[d]thiazol-2-yl)amino)cyclohexanol] | 50 to 400 |
